Active and inactive are the calls of the source. The rule behind the calls is not given here.
Assays:
[1] = target: T1, RAC-alpha serine/threonine-protein kinase (Homo sapiens, UniProt P31749); assay: Inhibition of AKT
[2] = Cytotoxicity against human MDA468 cells expressing AKT; format: functional, cell-based, MDA-MB-468; conditions: Homo sapiens, MDA-MB-468
[3] = target: T1, RAC-alpha serine/threonine-protein kinase; assay: Inhibition of AKT at < 10 uM

T1 sequence (P31749 whole entry): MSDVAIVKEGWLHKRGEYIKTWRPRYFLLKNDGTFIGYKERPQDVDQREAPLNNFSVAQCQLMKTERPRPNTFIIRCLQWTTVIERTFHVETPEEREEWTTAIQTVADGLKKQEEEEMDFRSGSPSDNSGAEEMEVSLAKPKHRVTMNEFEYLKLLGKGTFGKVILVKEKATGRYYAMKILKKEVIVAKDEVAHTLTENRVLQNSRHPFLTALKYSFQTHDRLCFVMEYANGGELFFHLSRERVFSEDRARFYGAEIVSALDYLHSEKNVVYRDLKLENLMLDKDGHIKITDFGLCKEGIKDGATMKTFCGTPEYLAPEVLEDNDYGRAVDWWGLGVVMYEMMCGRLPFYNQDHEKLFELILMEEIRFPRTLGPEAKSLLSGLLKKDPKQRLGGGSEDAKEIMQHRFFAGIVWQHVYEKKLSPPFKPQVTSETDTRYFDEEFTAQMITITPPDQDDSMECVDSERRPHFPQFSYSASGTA

Compound	IC50 [1] [nM]	IC50 [2] [nM]	Activity [3]
CCC[C@H]1O[C@@H]2CC(=O)O[C@@H]2C2=C1C(=O)c1c(OC)cccc1C2=O	497	1110	–
O=C1C[C@H]2OCC3=C(C(=O)c4ccccc4C3=O)[C@H]2O1	44	800	–
O=C1C[C@H]2O[C@H](c3cccs3)C3=C(C(=O)c4ccccc4C3=O)[C@H]2O1	57	600	–
C[C@H]1O[C@@H]2CC(=O)O[C@@H]2C2=C1C(=O)c1ccccc1C2=O	150	480	–
CCOC(=O)C[C@@H]1CC2=C(C(=O)c3ccccc3C2=O)[C@@H](C)O1	–	–	inactive
CCOC(=O)C[C@@H]1CC2=C(C(=O)c3ccccc3C2=O)[C@@H](c2cccs2)O1	–	–	inactive
CCOC(=O)C[C@@H]1CC2=C(CO1)C(=O)c1ccccc1C2=O	–	–	inactive
O=C1C[C@H]2O[C@@H](c3cccc(O)c3)C3=C(C(=O)c4ccccc4C3=O)[C@H]2O1 (racemic)	350	1000	–
CCC[C@H]1O[C@@H]2CC(=O)O[C@@H]2C2=C1C(=O)c1ccccc1C2=O (racemic)	163	600	–
CC1(C)O[C@@H]2CC(=O)O[C@@H]2C2=C1C(=O)c1ccccc1C2=O (racemic)	1440	230	–
O=C1C[C@H]2O[C@H](COCc3ccccc3)C3=C(C(=O)c4ccccc4C3=O)[C@H]2O1 (racemic)	72	1000	–
O=C1C[C@H]2O[C@@H](c3ccc(O)cc3)C3=C(C(=O)c4ccccc4C3=O)[C@H]2O1 (racemic)	80	550	–
O=C1C[C@H]2OC3(CCCC3)C3=C(C(=O)c4ccccc4C3=O)[C@H]2O1 (racemic)	295	1600	–
Nc1ccc([C@@H]2O[C@@H]3CC(=O)O[C@@H]3C3=C2C(=O)c2ccccc2C3=O)cc1 (racemic)	850	550	–
CCC[C@@H]1O[C@@H]2CC(=O)O[C@@H]2C2=C1C(=O)c1ccccc1C2=O (racemic)	383	1300	–
